In the supplement of paper PMC10307832:

What was measured:
Assay in all cases: relative viability (nuclei count vs DMSO), 5 days (fraction); higher = more cells survive
Alisertib + Palbociclib = compound: COc1cc(Nc2ncc3c(n2)-c2ccc(Cl)cc2C(c2c(F)cccc2OC)=NC3)ccc1C(=O)O [Alisertib] + CC(=O)c1c(C)c2cnc(Nc3ccc(N4CCNCC4)cn3)nc2n(C2CCCC2)c1=O [Palbociclib] (partner 0.5 µM)
Summary of the method: (§1)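 Lung cancer cell lines in 1536-well plates were dosed by pin tool the day after seeding, either with one drug alone or with a fixed anchor-drug dose plus five library-drug doses (not always all listed) in √10 steps. After 5 days, cells were fixed and their nuclei stained in one step (final 0.05% Triton X-100, 1% formaldehyde, 1 ug/ml Hoechst), then counted on 4× images. Relative viability is the nuclei count in treated wells divided by that in vehicle wells. Values are medians of duplicate plates.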

Alisertib + Alpelisib = compound: COc1cc(Nc2ncc3c(n2)-c2ccc(Cl)cc2C(c2c(F)cccc2OC)=NC3)ccc1C(=O)O [Alisertib] + Cc1nc(NC(=O)N2CCC[C@H]2C(N)=O)sc1-c1ccnc(C(C)(C)C(F)(F)F)c1 [Alpelisib] (partner 2 µM)
Summary of the method: as §1

Alisertib + Pemetrexed = compound: COc1cc(Nc2ncc3c(n2)-c2ccc(Cl)cc2C(c2c(F)cccc2OC)=NC3)ccc1C(=O)O [Alisertib] + Nc1nc2[nH]cc(CCc3ccc(C(=O)N[C@@H](CCC(=O)O)C(=O)O)cc3)c2c(=O)[nH]1 [Pemetrexed] (partner 0.2 µM)
Summary of the method: as §1

Alisertib + Olaparib = compound: COc1cc(Nc2ncc3c(n2)-c2ccc(Cl)cc2C(c2c(F)cccc2OC)=NC3)ccc1C(=O)O [Alisertib] + O=C(c1cc(Cc2n[nH]c(=O)c3ccccc23)ccc1F)N1CCN(C(=O)C2CC2)CC1 [Olaparib] (partner 8 µM)
Summary of the method: as §1

Cell Line	relative viability (Alisertib + Palbociclib; first compound 0.005 µM)	relative viability (Alisertib + Palbociclib; first compound 0.01581 µM)	relative viability (Alisertib + Palbociclib; first compound 0.05 µM)	relative viability (Alisertib + Palbociclib; first compound 0.1581 µM)	relative viability (Alisertib + Palbociclib; first compound 0.5 µM)	relative viability (Alisertib + Alpelisib; first compound 0.005 µM)	relative viability (Alisertib + Alpelisib; first compound 0.01581 µM)	relative viability (Alisertib + Alpelisib; first compound 0.05 µM)	relative viability (Alisertib + Alpelisib; first compound 0.1581 µM)	relative viability (Alisertib + Alpelisib; first compound 0.5 µM)	relative viability (Alisertib + Pemetrexed; first compound 0.005 µM)	relative viability (Alisertib + Pemetrexed; first compound 0.01581 µM)	relative viability (Alisertib + Pemetrexed; first compound 0.05 µM)	relative viability (Alisertib + Pemetrexed; first compound 0.1581 µM)	relative viability (Alisertib + Pemetrexed; first compound 0.5 µM)	relative viability (Alisertib + Olaparib; first compound 0.005 µM)	relative viability (Alisertib + Olaparib; first compound 0.01581 µM)	relative viability (Alisertib + Olaparib; first compound 0.05 µM)	relative viability (Alisertib + Olaparib; first compound 0.1581 µM)	relative viability (Alisertib + Olaparib; first compound 0.5 µM)
NCI-H1734	0.397	0.325	0.296	0.245	0.188	0.623	0.628	0.444	0.253	0.239	0.42	0.427	0.405	0.286	0.203	0.591	0.531	0.289	0.315	0.172
NCI-H1755	0.408	0.432	0.445	0.428	0.384	0.876	0.852	0.63	0.414	0.248	0.443	0.399	0.386	0.321	0.34	0.814	0.792	0.532	0.509	0.287
NCI-H1792	0.697	0.522	0.423	0.343	0.169	0.678	0.606	0.246	0.0918	0.0744	0.674	0.346	0.203	0.0756	0.0468	0.425	0.384	0.138	0.0583	0.0651
NCI-H1793	0.332	0.3	0.273	0.215	0.234	0.735	0.9	0.383	0.329	0.2	0.551	0.339	0.356	0.232	0.209	0.798	0.354	0.296	0.273	0.132
NCI-H1915	0.497	0.455	0.29	0.234	0.151	0.934	0.808	0.385	0.354	0.199	0.432	0.382	0.325	0.262	0.219	0.218	0.186	0.142	0.138	0.129
NCI-H1944	0.33	0.357	0.27	0.187	0.159	0.788	0.882	0.626	0.41	0.207	0.579	0.662	0.564	0.246	0.18	0.402	0.381	0.318	0.201	0.178
NCI-H1975	0.454	0.547	0.299	0.259	0.168	0.632	0.621	0.295	0.215	0.168	0.289	0.265	0.235	0.214	0.185	0.68	0.627	0.347	0.234	0.163
NCI-H1993	0.583	0.672	0.529	0.402	0.35	0.625	0.652	0.538	0.625	0.573	0.614	0.631	0.506	0.539	0.422	1.09	0.995	0.682	0.483	0.433
NCI-H2009	0.171	0.199	0.117	0.124	0.123	1.15	1.02	0.417	0.375	0.265	0.959	0.987	0.724	0.475	0.168	0.645	0.689	0.275	0.291	0.148
NCI-H2023	0.349	0.288	0.174	0.125	0.0948	0.571	0.412	0.456	0.351	0.117	0.192	0.222	0.177	0.152	0.101	0.448	0.456	0.27	0.134	0.101
NCI-H2085	0.505	0.469	0.344	0.346	0.336	0.892	0.91	0.465	0.352	0.314	0.638	0.896	0.837	0.27	0.294	0.74	0.723	0.4	0.335	0.35
NCI-H2087	0.226	0.271	0.154	0.11	0.109	0.939	0.816	0.226	0.203	0.171	0.641	0.632	0.423	0.163	0.144	0.549	0.527	0.13	0.126	0.108
NCI-H2126	0.314	0.378	0.346	0.304	0.269	0.746	0.746	0.384	0.322	0.246	0.639	0.641	0.602	0.316	0.276	0.816	0.785	0.516	0.295	0.321
NCI-H2170	0.366	0.365	0.243	0.22	0.155	0.732	0.749	0.424	0.34	0.199	0.267	0.282	0.236	0.209	0.183	0.601	0.509	0.307	0.206	0.163
NCI-H2228	0.641	0.689	0.378	0.118	0.125	0.781	0.499	0.256	0.133	0.193	0.344	0.336	0.26	0.121	0.0987	0.652	0.767	0.205	0.0922	0.0747
NCI-H2347	0.427	0.429	0.438	0.387	0.362	0.903	0.877	0.857	0.637	0.436	0.424	0.423	0.416	0.409	0.349	0.555	0.546	0.474	0.491	0.365
